Data: patent US20240132525A1, “BORON […], CO[…], METHODS AND USES THEREOF” (priority 2022, published 2024)
Where two headings read alike, the source gives them in different places.

Columns and labels:
[1] = target: JAK2 (Homo sapiens (Human), UniProt O60674); test: Biochemical kinase assay (33P-ATP filter-binding), JAK2
Description: (§1) Biochemical Kinase Assay Protocol (JAK)
(§2) Reaction Procedure: • 1. […] Detected kinase activity by filter-binding method.

[2] = target: JAK1 (Homo sapiens (Human), UniProt P23458); test: Biochemical kinase assay (33P-ATP filter-binding), JAK1
Sequence of JAK1 (P23458 whole entry, species assumed): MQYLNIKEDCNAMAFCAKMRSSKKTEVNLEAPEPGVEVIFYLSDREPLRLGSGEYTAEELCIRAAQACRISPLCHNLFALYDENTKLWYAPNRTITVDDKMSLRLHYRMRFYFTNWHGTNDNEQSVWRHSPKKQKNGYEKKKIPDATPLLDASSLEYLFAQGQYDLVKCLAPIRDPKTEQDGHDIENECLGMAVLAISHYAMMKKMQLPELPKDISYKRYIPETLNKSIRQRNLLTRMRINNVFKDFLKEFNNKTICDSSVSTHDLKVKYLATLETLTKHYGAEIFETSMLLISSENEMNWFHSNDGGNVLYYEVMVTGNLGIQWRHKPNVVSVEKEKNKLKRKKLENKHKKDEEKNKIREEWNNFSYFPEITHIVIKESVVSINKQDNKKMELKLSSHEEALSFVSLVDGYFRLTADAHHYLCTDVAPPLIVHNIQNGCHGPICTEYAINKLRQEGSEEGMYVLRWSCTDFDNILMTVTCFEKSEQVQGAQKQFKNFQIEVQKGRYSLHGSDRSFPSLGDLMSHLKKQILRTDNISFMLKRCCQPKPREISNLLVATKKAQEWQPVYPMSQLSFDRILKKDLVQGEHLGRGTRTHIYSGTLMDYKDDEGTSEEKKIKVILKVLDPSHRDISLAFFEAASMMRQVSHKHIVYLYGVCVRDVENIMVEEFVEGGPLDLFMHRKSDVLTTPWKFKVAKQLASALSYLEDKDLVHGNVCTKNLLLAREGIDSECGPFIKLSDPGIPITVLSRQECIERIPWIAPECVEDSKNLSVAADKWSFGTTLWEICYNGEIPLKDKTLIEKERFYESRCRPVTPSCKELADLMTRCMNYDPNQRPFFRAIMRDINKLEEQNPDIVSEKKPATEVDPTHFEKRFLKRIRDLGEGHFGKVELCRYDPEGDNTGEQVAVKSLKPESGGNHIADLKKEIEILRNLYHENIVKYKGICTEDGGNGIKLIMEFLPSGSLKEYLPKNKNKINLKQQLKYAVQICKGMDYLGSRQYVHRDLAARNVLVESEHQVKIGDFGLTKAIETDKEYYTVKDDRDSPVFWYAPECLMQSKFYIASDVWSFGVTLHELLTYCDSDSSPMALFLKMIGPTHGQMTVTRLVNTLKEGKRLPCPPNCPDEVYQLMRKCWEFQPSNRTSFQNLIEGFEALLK
Description: as §1, §2

[3] = tested on: GM-CSF/pSTAT5; test: Cytokine function assay GM-CSF/pSTAT5 in lysed whole blood cells; type: cell-based; conditions: Whole blood cell, read-out: IC50 GM-CSF
Description: (§3) Cytokine Function Assay Protocols for IL-4/pSTAT6 and GM-CSF/pSTAT5
GM-CSF/pSTAT5: • Whole blood from a healthy donor was lysed to remove red blood cells. Cells were plated onto a 96 well plate. Compound was added and incubated for 1 hour (at 37° C.). After 1 hour, cells were stimulated with GM-CSF for 15 minutes. Cells were fixed and stained with anti-pSTAT5 antibody. After staining, cells were read on a Beckman-Coulter CytoFLEX.

[4] = tested on: IL-31; test: Cytokine function assay for IL-31 in DH82 cells; type: cell-based, canine; conditions: Canis lupus familiaris
Description: Cytokine Function Assay Protocol for IL-31
The protocol for the cytokine function assay for IL-31 is set forth below: • 1. […] After 24 hr, wash with 37° C. pre-warmed PBS (100 uL/well). • 3. Add serum-free MEM, 90 uL per well, 2 hr, 37° C. • 4. Add 10 uL 10×IL-31 (40, 10, 2.5 ug/mL) in duplicate, 5 min, 37° C. • 5. Remove medium, add 60 uL lysis buffer per well. Agitate on a plate shaker (˜350 rpm) for 10 min at RT. • 6. […] Add 6 uL Acceptor Mix, cover with aluminum foil, quickly spin at 1000 rpm, shake at 120 rpm for 2 min, then incubate at RT for 1 hr. • 8. Add 6 uL Donor Mix, cover with aluminum foil, quickly spin at 1000 rpm, shake at 120 rpm for 2 min, then incubate at RT for 1 hr. • 9. Measure the fluorescence using EnVision™ plate reader.

[5] = Dog LM (liver microsome) assay; type: in vitro ADME; conditions: Table 3a; predicted clearance as percent of liver blood flow, 1 μM, 1 mg/ml microsomal protein
Procedure, shortened: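 Pooled Beagle liver microsomes (1 mg/ml protein), compound 1 μM, Tris pH 7.6 with 5 mM MgCl2, 37 °C, started with 1 mM NADPH; parent loss by LC-MS/MS over several time points.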

[6] = tested on: IL-4/pSTAT6; test: Cytokine function assay IL-4/pSTAT6 in PBMC; type: cell-based; conditions: PBMC, read-out: IC50 IL-4, Table 3a
Description: as §3
IL-4/pSTAT6: • PBMC from a healthy donor was plated onto a 96 w plate. Compound was added and incubated for 1 hour (at 37° C.). After 1 hour, cells were stimulated with IL-4 for 15 minutes. Cells were fixed and stained with anti-pSTAT6 antibody. After staining, cells were read on a Beckman-Coulter CytoFLEX.

[7] = target: PDE4B (Homo sapiens (Human), UniProt Q07343); test: PDE4B inhibition; type: biochemical; conditions: Table 3a
Sequence of PDE4B (Q07343 whole entry, species assumed): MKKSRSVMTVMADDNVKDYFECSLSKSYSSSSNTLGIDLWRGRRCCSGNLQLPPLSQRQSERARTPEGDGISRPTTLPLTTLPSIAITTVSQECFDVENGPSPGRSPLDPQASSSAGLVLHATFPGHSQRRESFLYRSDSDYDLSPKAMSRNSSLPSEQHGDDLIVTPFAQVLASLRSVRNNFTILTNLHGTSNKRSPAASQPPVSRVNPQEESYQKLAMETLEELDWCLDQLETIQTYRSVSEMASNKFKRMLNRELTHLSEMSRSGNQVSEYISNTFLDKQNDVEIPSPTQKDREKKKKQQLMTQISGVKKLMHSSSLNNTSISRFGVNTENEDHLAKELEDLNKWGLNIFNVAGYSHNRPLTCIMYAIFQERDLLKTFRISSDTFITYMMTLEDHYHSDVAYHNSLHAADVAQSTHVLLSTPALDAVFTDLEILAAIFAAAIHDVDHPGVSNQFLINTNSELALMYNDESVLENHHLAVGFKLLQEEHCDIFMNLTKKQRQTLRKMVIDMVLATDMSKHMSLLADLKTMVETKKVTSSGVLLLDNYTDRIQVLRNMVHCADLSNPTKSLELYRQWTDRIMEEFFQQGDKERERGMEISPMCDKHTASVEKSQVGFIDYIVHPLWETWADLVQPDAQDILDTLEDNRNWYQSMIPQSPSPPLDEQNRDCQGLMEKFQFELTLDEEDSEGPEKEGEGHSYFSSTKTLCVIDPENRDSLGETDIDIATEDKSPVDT

[8] = DH82, Table 3a, read-out: IC50 IL-31

Sequence of JAK2 (O60674 whole entry, species assumed): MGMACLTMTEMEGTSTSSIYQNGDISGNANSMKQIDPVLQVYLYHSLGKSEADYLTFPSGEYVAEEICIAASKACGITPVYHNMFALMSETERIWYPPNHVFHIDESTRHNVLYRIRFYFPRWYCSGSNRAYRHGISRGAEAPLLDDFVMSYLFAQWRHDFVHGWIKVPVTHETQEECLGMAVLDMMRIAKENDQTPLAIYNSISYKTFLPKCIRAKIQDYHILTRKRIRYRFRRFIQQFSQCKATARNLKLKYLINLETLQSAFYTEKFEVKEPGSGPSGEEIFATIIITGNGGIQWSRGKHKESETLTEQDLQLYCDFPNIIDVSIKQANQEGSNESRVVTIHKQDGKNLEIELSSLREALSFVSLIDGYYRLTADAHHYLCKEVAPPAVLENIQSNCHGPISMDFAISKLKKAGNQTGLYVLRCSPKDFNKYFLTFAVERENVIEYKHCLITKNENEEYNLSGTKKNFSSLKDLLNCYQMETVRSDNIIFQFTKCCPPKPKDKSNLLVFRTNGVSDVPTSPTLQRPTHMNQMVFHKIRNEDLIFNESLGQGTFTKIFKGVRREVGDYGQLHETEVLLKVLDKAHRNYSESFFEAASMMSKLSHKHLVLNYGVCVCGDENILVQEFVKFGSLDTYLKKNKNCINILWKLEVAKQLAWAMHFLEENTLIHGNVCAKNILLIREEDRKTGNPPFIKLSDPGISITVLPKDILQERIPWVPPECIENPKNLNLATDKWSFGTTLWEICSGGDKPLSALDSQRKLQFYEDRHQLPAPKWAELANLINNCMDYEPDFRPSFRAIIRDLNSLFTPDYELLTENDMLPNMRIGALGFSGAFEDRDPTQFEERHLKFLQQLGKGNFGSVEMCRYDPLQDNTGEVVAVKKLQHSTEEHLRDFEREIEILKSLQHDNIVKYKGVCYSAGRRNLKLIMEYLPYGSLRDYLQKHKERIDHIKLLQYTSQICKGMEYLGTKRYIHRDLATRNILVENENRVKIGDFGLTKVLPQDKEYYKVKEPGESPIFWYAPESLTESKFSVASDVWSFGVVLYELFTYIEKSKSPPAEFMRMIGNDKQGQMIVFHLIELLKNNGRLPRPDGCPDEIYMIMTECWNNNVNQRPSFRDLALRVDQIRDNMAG

SMILES | IC50 ([1]; Table 3a, read-out: IC50 JAK2) | IC50 ([2]; Table 3a, read-out: IC50 JAK1) | IC50 [3] | IC50 [4, 8] | Dog LM QH [5] | IC50 [6] | IC50 [7] | IC50 ([1]; IC50 JAK2, Table 3a) | IC50 ([2]; IC50 JAK1, Table 3a) | IC50 ([4]; DH82, read-out: IC50 IL-31)
Cc1cnc(Nc2cc(F)c3c(c2)COB3O)nc1NC1COCCC1C#N (racemic) [Example 029, (trans)-3-((2-((7-fluoro-1-hydroxy-1,3-dihydrobenzo[c][1,2]oxaborol-5-yl)amino)-5-methylpyrimidin-4-yl)amino)tetrahydro-2H-pyran-4-carbonitrile] | 0.0098 µM | 0.0002 µM | 2.24 µM | 0.0495 µM | <19.9% | 0.0583 µM | 0.978 µM | – | – | –
Cc1cnc(Nc2cc(C)c3c(c2)COB3O)nc1N[C@@H]1CCC[C@H]1C#N (relative stereo) [Example 002, (trans)-2-((2-((1-hydroxy-7-methyl-1,3-dihydrobenzo[c][1,2]oxaborol-5-yl)amino)-5-methylpyrimidin-4-yl)amino)cyclopentane-1-carbonitrile] | 0.0121 µM | 0.0009 µM | 2.1 µM | 0.0239 µM | <19.9% | 0.0948 µM | 0.832 µM | – | – | –
Cc1cnc(Nc2cc(Cl)c3c(c2)COB3O)nc1NC1CCCC[C@@H]1C#N (single isomer, unassigned) [Example 010a, (trans)-2-[[2-[(7-chloro-1-hydroxy-3H-2,1-benzoxaborol-5-yl)amino]-5-methyl-pyrimidin-4-yl]amino]cyclohexane-1-carbonitrile] | 0.004 µM | 0.0006 µM | 0.469 µM | 0.0127 µM | <19.9% | 0.0379 µM | – | – | – | –
Cc1cnc(Nc2cc3c(c(C(F)(F)F)c2)B(O)OC3)nc1N[C@H]1CCCC[C@@H]1C#N (single isomer, unassigned) [Example 011a, (trans)-2-((2-((1-hydroxy-7-(trifluoromethyl)-1,3-dihydrobenzo[c][1,2]oxaborol-5-yl)amino)-5-methylpyrimidin-4-yl)amino)cyclohexane-1-carbonitrile] | 0.0117 µM | 0.0004 µM | 1.49 µM | 0.107 µM | <19.9% | 0.151 µM | – | – | – | –
Cc1cc(Nc2ncc(Cl)c(N[C@H]3COCC[C@@H]3C#N)n2)cc2c1B(O)OC2 (single isomer, unassigned) [Example 041a, (trans)-3-[[5-chloro-2-[(1-hydroxy-7-methyl-3H-2,1-benzoxaborol-5-yl)amino]pyrimidin-4-yl]amino]tetrahydropyran-4-carbonitrile] | – | – | > 10 µM | 0.04 µM | <19.9% | 0.047 µM | – | 0.0031 µM | 0.0008 µM | –
N#C[C@H]1CCOC[C@@H]1Nc1nc(Nc2cc3c(c(C(F)(F)F)c2)B(O)OC3)ncc1Cl (single isomer, unassigned) [Example 042a, (trans)-3-((5-chloro-2-((1-hydroxy-7-(trifluoromethyl)-1,3-dihydrobenzo[c][1,2]oxaborol-5-yl)amino)pyrimidin-4-yl)amino)tetrahydro-2H-pyran-4-carbonitrile] | 0.0073 µM | 0.0004 µM | 2.97 µM | 0.0097 µM | <19.9% | 0.148 µM | – | – | – | –
Cc1cnc(Nc2cc3c(c(C(F)(F)F)c2)B(O)OC3)nc1N[C@H]1COC[C@@H]1C#N (single isomer, unassigned) [Example 043a, (trans)-4-[[2-[[1-hydroxy-7-(trifluoromethyl)-3H-2,1-benzoxaborol-5-yl]amino]-5-methyl-pyrimidin-4-yl]amino]tetrahydrofuran-3-carbonitrile] | 0.0237 µM | 0.0009 µM | 4.14 µM | 0.0454 µM | <19.9% | 0.267 µM | – | – | – | –
Cc1cnc(Nc2cc(Cl)c3c(c2)COB3O)nc1N[C@H]1CCCOC1 [Example 030b, (S)-7-chloro-5-((5-methyl-4-((tetrahydro-2H-pyran-3-yl)amino)pyrimidin-2-yl)amino)benzo[c][1,2]oxaborol-1(3H)-ol] | 0.0919 µM | 0.0047 µM | 4.48 µM | – | <19.9% | 0.193 µM | – | – | – | 0.0258 µM
